Data on three molecules can be found in patent US20250085300A1, “STABILITY-ENHANCING COMPOSITIONS AND METHODS OF PREPARING COMPOUNDS” (FOGHORN THERAPEUTICS INC., priority 2021, published 2025).

Each structure is given as a SMILES string. “Also recorded” adds a separate entry of the source.

Assay [1] concerns synovial sarcoma cell lines (SYO1, Yamato, HS-SY-II, and ASKA). The experiment in a line: Growth of synovial sarcoma cell lines (Example 2: IncuCyte confluency, crystal violet, colonies). Format: cell-based. Particulars: 1 μM or indicated concentrations. The method, then:
(§1) Cells were treated with DMSO or the BRD9 degrader, Compound 1, at indicated concentrations, and proliferation was monitored from day 7 to day 14 by measuring confluency over time using an IncuCyte live cell analysis system (FIG. 4). Growth medium and compounds were refreshed every 3-4 days.
(§2) Cells were seeded into 12-well plates and treated with DMSO, 1 μM BRD9 inhibitor, Compound 2 (also known as BI-7273, see Martin et al, J Med Chem. 59 (10): 4462-4475 (2016); see structure of compound 2 below), or 1 μM BRD9 degrader, Compound 1.
(§3) The number of cells was optimized for each cell line. Growth medium and compounds were refreshed every 3-5 days. SYO1, Yamato, A549, 293T and HS-SY-II cells were fixed and stained at day 11. ASKA cells were fixed and stained at day 23. Staining was done by incubation with crystal violet solution (0.5 g Crystal Violet, 27 ml 37% Formaldehyde, 100 mL 10×PBS, 10 mL Methanol, 863 dH20 to 1 L) for 30 min followed by 3×washes with water and drying the plates for at least 24 h at room temperature. Subsequently plates were scanned on an Odyssey CLx Imaging system (FIG. 5).
(§4) Cells were seeded into 96-well ultra-low cluster plate (Costar, #7007) in 200 μL complete media and treated at day 2 with DMSO, Staurosporin, or BRD9 degrader, Compound 1, at indicated doses (FIG. 2C). Media and compounds were changed every 5 d and cell colonies were imaged at day 14.

Assay [2] concerns non-synovial control cancer cell lines (293T, A549, G401). The experiment in a line: Growth of non-synovial control cancer cell lines (Example 2). The class given is cell-based. How it is done:
as §1, §2, §3, §4

The subject of assay [3] is synovial sarcoma cell lines (SYO1, HS-SY-II, and ASKA). The experiment in a line: Growth of synovial sarcoma cell lines, crystal violet day 14 (Example 3). Format: cell-based. Particulars: daily treatment. The method, then:
(§5) Procedure: Cells were seeded into 6-well or 12-well plates and were treated daily with a BRD9 degrader (Compound 1), a bromo-domain BRD9 binder (Compound 2), E3 ligase binder (lenalidomide), DMSO, or staurosporin (positive control for cell killing), at indicated concentrations. The number of cells was optimized for each cell line. Growth media was refreshed every 5 days. By day 14, medium was removed, cells were washed with PBS, and stained using 500 μL of 0.005% (w/v) crystal violet solution in 25% (v/v) methanol for at least 1 hour at room temperature. Subsequently plates were scanned on an Odyssey CLx Imaging system.

For assay [4], the system named is non-synovial control cancer cell lines (RD, HCT116, and Calu6). As to the kind of experiment: Growth of non-synovial control cancer cell lines, crystal violet day 14 (Example 3). The class given is cell-based. Particulars: daily treatment. How it is done:
as §5

In assay [5] the test system is SYO1 cells. The experiment in a line: Cell cycle analysis (Click-iT Plus EdU flow cytometry). Format: cell-based. The settings on record: 200 nM or 1 μM, 8 or 13 days, compared to DMSO and lenalidomide. The method, then: (§6) Procedure: SYO1 cells were treated for 8 or 13 days with DMSO, a BRD9 degrader (Compound 1) at 200 nM or 1 μM, or an E3 ligase binder (lenalidomide) at 200 nM. Compounds were refreshed every 5 days. Cell cycle analysis was performed using the Click-iT™ Plus EdU Flow Cytometry Assay (Invitrogen). The apoptosis assay was performed using the Annexin V-FITC Apoptosis Detection Kit (Sigma A9210). Assays were performed according to the manufacturer's protocol.

The test system of assay [6] is SYO1 cells. The experiment in a line: Apoptosis assay (Annexin V-FITC). Format: cell-based. Particulars: 200 nM or 1 μM, 8 days, compared to DMSO controls. The method, then:
as §6

In assay [7] the target is T1, Nanoluciferase-BRD9 fusion protein (Homo sapiens, UniProt Q9H8M2).
T1 construct: expressed in transfected cells
As to the kind of experiment: SYO1 BRD9 NanoLuc degradation assay. The class given is cell-based. Particulars: 6 hours. The method, then:
Procedure: A stable SYO-1 cell line expressing 3×FLAG-NLuc-BRD9 was generated. On day 0 cells were seeded in 30 μL media into each well of 384-well cell culture plates. The seeding density was 8000 cells/well. On day 1, cells were treated with 30 nL DMSO or 30 nL of 3-fold serially DMSO-diluted compounds (10 points in duplicates with 1 μM as final top dose). Subsequently plates were incubated for 6 hours in a standard tissue culture incubator and equilibrated at room temperature for 15 minutes. Nanoluciferase activity was measured by adding 15 μL of freshly prepared Nano-Glo Luciferase Assay Reagent (Promega N1130), shaking the plates for 10 minutes and reading the bioluminescence using an EnVision reader.
Results: The Inhibition % was calculated using the following formula: % Inhibition=100×(LumHC−LumSample)/(LumHC−LumLC). DMSO treated cells are employed as High Control (HC) and 1 μM of a known BRD9 degrader standard treated cells are employed as Low Control (LC).

Another assay deals with T2, BRD9 (Homo sapiens, UniProt Q9H8M2).
T2 construct: Tumors were lysed with 1×RIPA lysis buffer; from tissue; host or cells: SYO-1 xenograft tumours from BALB/c Nude mice
T2 sequence (Q9H8M2 1-597): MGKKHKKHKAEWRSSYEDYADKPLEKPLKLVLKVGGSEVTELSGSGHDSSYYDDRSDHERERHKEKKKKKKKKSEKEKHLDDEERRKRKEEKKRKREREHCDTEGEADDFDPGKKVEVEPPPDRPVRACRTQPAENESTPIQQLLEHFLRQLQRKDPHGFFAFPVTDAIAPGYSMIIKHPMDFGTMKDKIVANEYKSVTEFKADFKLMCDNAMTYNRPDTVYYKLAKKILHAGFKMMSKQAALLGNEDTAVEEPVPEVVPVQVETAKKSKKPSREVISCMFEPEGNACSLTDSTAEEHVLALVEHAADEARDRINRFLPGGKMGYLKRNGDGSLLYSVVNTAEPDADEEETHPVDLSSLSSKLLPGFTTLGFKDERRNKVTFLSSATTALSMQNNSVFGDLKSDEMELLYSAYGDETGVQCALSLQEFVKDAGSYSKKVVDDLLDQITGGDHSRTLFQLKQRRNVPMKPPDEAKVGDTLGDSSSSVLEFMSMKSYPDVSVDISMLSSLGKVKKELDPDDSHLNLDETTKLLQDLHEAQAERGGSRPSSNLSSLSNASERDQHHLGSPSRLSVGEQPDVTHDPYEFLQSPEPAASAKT
The experiment in a line: BRD9 western blot in synovial sarcoma tumors in vivo (Example 11). The arrangement: species or system mice. Particulars: 1 mg/kg i.p. for 4 weeks. The method, then:
Method: Mice were treated with D1, 1 mg/kg, i.p. for 4 weeks. Mice were then euthanized, and tumors were collected at 8 hours, 72 hours, and 168 hours post last dose. Tumors were lysed with 1x RIPA lysis buffer (Boston BioProducts, BP-115D) with protease and phosphatase protein inhibitor (Roche Applied Science #04906837001 & 05892791001). Equal amounts of lysate (30 μg) were loaded in 4-12% Bis-Tris Midi Protein Gels in 1×MOPS buffer; samples ran at 120 V for 120 minutes. Protein was transferred to membrane with TransBlot at 250 mA for 150 minutes, and then membranes were blocked with Odyssey blocking buffer for 1 hour at room temperature. Membranes were hybridized overnight in cold room with primary antibodies. Images acquired using Li-COR imaging system (Li-COR Biotechnology, Lincoln, Nebraska).

T1 sequence (Q96SW2 whole entry partner, one chain of several, the tested form may be a part): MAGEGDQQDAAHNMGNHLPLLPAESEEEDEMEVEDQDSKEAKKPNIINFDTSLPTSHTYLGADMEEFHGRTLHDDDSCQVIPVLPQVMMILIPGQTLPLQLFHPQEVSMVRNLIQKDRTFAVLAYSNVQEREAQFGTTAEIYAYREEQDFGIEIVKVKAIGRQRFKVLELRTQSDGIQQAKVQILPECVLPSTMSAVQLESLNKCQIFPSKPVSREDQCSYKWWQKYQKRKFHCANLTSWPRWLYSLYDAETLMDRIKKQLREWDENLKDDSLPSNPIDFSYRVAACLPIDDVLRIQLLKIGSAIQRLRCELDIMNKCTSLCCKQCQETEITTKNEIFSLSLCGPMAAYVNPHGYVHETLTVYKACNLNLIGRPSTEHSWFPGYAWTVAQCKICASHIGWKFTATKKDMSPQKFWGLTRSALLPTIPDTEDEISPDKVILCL

On to `COc1cc(-c2cn(C)c(=O)c3cnccc23)cc(OC)c1CN(C)CC(=O)NCCOCCOCCNc1cccc2c1C(=O)N(C1CCC(=O)NC1=O)C2=O` (stereo not shown) [Compound 1], for which the “inhibition of cell growth” value in assay [1] was “inhibition of the growth of the cells”; in assay [2] it was “does not result in inhibition of the growth”; in assay [3] it was “inhibition of the growth of the cells; also recorded: most significant growth inhibition”; in assay [4], “did not result in inhibition of the growth”. Moreover, the “numbers of cells in the S-phase of the cell cycle” value in the assay on SYO1 cells [5] is given as “reduced numbers of cells in the S-phase”. Also, the “numbers of early- and late-apoptotic cells” value with SYO1 cells [6] was “increased numbers of early- and late-apoptotic cells”.

The molecule `COc1cc(-c2cn(C)c(=O)c3cnc(N4CCC4)cc23)cc(OC)c1CN1CCC(CN2CCC3(CC2)CN(c2ccc4c(c2)C(=O)N(C2CCC(=O)NC2=O)C4)C3)CC1` (racemic) [Compound D1, 3-[6-(7-[[1-([4-[6-(azetidin-1-yl)-2-methyl-1-oxo-2,7-naphthyridin-4-yl]-2,6-dimethoxyphenyl]methyl)piperidin-4-yl]methyl]-2,7-diazaspiro[3.5]nonan-2-yl)-1-oxo-3H-isoindol-2-yl]piperidine-2,6-dione] had an IC50 in assay [7] of 130 pM. The “time after dose with complete degradation of BRD9” value on BRD9 is “up to 168 hours”. The “BRD9 level in tumor (western blot)” value at BRD9 (tumors 8, 72, 168 hours post last dose) was “complete degradation”.

With `COc1cc(-c2cn(C)c(=O)c3cnccc23)cc(OC)c1CN(C)C` [Compound 2], the “inhibition of cell growth” value in assay [1] is “inhibition of the growth of the cells”; in assay [2], “does not result in inhibition of the growth”; in assay [3] it was “inhibition of the growth of the cells”; in assay [4], “did not result in inhibition of the growth”.
